In patent US20260201347A1, “ARTIFICIAL BIFUNCTIONAL ENZYME COMPRISING A MYELOPEROXIDASE ACTIVITY AND A GLUCOSE OXIDASE ACTIVITY AND APPLICATIONS THEREOF” (UNIVERSITÉ DE BORDEAUX, priority 2022, published 2026):
Where “and” joins values, the source holds several entries; their conditions need not be identical. Identical values can stand only once. Like-named read-outs stand apart in the source and are kept apart here.

Assays:
[1] = molecular target: RbMPO-GGGGGGGG-GOx chimera (Rhodopirellula baltica myeloperoxidase, SEQ ID NO: 10; linker SEQ ID NO: 9; Penicillium amagasakiens glucose oxidase, SEQ ID NO: 12) (Penicillium amagasakiense, UniProt P81156); details: 20 mM NaCl, pH7.5; for Km: read-out: KM H2O2; for Ki: read-out: Ki H2O2, substrate inhibition
RbMPO-GGGGGGGG-GOx chimera (Rhodopirellula baltica myeloperoxidase, SEQ ID NO: 10; linker SEQ ID NO: 9; Penicillium amagasakiens glucose oxidase, SEQ ID NO: 12), sequence (P81156 with tags, fused parts or gaps): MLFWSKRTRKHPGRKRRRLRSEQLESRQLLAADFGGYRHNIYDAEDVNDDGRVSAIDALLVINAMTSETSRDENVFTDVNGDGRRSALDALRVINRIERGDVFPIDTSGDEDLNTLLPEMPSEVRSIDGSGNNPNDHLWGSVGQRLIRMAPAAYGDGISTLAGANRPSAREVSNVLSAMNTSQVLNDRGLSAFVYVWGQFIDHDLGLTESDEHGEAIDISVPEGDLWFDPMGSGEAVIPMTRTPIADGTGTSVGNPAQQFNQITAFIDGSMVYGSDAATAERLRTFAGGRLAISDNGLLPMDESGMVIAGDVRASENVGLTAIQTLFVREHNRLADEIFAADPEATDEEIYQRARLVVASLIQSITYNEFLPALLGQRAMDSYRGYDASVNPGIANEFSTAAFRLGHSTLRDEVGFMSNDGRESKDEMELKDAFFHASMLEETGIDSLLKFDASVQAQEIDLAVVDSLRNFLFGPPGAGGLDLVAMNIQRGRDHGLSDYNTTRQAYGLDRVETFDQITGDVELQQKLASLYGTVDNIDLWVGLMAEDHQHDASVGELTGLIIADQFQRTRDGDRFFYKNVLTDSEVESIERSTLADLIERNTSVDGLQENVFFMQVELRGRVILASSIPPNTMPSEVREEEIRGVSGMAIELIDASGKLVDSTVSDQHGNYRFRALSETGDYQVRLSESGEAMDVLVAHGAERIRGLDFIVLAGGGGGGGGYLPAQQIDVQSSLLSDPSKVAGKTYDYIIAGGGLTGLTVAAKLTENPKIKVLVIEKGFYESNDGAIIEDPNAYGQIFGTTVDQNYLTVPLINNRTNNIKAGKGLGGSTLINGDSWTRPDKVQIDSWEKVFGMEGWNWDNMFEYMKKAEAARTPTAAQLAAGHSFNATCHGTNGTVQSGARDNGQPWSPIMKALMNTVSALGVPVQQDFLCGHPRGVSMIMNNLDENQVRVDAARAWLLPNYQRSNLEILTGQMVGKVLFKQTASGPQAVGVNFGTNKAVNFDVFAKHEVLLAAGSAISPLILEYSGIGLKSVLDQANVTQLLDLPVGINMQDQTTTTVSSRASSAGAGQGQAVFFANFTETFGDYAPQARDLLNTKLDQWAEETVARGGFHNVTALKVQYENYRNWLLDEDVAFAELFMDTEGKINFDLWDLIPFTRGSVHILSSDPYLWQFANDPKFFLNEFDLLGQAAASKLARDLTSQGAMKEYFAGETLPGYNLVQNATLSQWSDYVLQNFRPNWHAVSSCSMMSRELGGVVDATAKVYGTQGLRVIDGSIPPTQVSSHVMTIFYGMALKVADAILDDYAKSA
Procedure: (§1) The fluorescent probe aminophenyl fluorescein (APF) (λexcitation=485 nm and λemission=525 nm) was used to measure the HOCl production by the chimera, as a measure of its chlorination activity. Three tests were performed: (1) at different glucose concentrations (0, 1, 2, 3, 4, 5, 6, 8, 10, 15, 20 mM) with fixed concentrations of chimera (1 μM) and NaCl (20 mM); (2) at different NaCl concentrations (0, 10, 20, 50, 100, 250, 500, 750 μM and 1 mM) with fixed concentrations of chimera (1 μM) and glucose (20 mM); (3) at different H2O2 concentrations (0, 0.01, 0.02, 0.05, 0.079, 0.1, 0.25, 0.5, 0.75, 1, 2, 4, 6, 8, 10, 20, 40, 60, 80, 100, 200, 500 mM) with fixed concentrations of chimera (1 μM) and NaCl (20 mM). For all experiments, 10 μM APF was used in each assay with 50 mM NaPi buffer pH7.5 QSP 20 μL (384-well plate). Each experiment was performed in triplicate. A 10-30 min. kinetic was performed for each range value and the increase rate of fluorescence intensity was compared to the standard fluorescein range. The measured fluorescence per second was thus proportional to the amount of fluorescein, which in turn was proportional to the amount of HOCl produced by the chimeras.
(§2) Steady-state kinetic parameters were determined by adjustment of experimental data to the following equations depending on the appearance of saturation curves: […]
(§3) In order to determine the RbMPO activity of the chimeras, a H2O2 concentration range was performed at a fixed concentration of NaCl. HOCl reacted with APF probe and apparition of fluorescein was monitored.

[2] = molecular target: T1, RbMPO-GOx chimera, no linker (Rhodopirellula baltica myeloperoxidase, SEQ ID NO: 10, fused to Penicillium amagasakiens glucose oxidase, SEQ ID NO: 12) (Penicillium amagasakiense, UniProt P81156); details: monomer, 20 mM NaCl, pH7.5
Procedure: as §1, §2, §3

[3] = molecular target: T2, RbMPO-LEGGEAEA-GOx chimera (Rhodopirellula baltica myeloperoxidase, SEQ ID NO: 10; linker SEQ ID NO: 4; Penicillium amagasakiens glucose oxidase, SEQ ID NO: 12) (Penicillium amagasakiense, UniProt P81156)
Procedure: as §1, §2, §3

[4] = molecular target: RbMPO-LEKREAEA-GOx chimera (Rhodopirellula baltica myeloperoxidase, SEQ ID NO: 10; linker SEQ ID NO: 7; Penicillium amagasakiens glucose oxidase, SEQ ID NO: 12) (Penicillium amagasakiense, UniProt P81156); details: trimer, 20 mM NaCl, pH7.5
Procedure: as §1, §2, §3

[5] = molecular target: RbMPO-LEKRPEAEA-GOx chimera (Rhodopirellula baltica myeloperoxidase, SEQ ID NO: 10); linker SEQ ID NO: 8; Penicillium amagasakiens glucose oxidase, SEQ ID NO: 12 (Penicillium amagasakiense, UniProt P81156); details: 20 mM NaCl, pH7.5; for Km: read-out: KM H2O2; for Ki: read-out: Ki H2O2, substrate inhibition
RbMPO-LEKRPEAEA-GOx chimera (Rhodopirellula baltica myeloperoxidase, SEQ ID NO: 10); linker SEQ ID NO: 8; Penicillium amagasakiens glucose oxidase, SEQ ID NO: 12, sequence (P81156 with tags, fused parts or gaps): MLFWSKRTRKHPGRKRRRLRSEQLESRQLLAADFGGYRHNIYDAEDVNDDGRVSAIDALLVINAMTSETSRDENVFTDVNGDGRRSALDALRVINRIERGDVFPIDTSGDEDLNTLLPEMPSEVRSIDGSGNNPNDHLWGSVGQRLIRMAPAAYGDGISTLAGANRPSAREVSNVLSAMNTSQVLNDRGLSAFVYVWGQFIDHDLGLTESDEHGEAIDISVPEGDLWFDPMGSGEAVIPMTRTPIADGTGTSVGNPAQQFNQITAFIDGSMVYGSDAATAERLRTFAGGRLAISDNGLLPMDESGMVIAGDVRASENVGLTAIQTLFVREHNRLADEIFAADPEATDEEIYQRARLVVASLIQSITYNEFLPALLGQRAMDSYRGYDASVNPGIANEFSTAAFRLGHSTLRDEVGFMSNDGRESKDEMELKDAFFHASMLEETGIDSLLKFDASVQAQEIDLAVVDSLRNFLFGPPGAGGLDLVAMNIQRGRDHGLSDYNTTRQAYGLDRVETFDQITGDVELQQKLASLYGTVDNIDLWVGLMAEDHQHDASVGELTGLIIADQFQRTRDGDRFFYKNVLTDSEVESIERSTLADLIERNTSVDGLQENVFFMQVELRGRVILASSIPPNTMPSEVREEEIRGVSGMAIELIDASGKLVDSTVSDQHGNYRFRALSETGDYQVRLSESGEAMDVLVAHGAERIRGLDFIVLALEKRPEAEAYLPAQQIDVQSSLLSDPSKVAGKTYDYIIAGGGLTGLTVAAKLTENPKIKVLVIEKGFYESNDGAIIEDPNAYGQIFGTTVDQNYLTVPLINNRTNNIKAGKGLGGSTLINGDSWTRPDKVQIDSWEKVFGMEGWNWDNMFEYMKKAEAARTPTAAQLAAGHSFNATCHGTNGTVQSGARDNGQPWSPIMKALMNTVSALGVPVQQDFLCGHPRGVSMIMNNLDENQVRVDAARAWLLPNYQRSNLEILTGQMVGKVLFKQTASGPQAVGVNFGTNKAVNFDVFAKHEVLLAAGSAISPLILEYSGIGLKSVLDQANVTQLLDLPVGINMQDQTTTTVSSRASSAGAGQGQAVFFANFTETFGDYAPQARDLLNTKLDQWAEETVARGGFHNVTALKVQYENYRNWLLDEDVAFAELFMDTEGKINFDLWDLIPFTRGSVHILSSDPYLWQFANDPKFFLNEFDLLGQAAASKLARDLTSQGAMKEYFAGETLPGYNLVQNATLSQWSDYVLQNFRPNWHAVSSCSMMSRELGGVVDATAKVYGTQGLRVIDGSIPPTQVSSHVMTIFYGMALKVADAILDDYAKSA
Procedure: as §1, §2, §3

[6] = tested on: RbMPO-LGKRGAGA-GOx chimera (Rhodopirellula baltica myeloperoxidase, SEQ ID NO: 10; linker SEQ ID NO: 5; Penicillium amagasakiens glucose oxidase, SEQ ID NO: 12); details: result in words
Procedure: as §1, §2

[7] = molecular target: RbMPO-LEKREAEALEKREAEA-GOx chimera (Rhodopirellula baltica myeloperoxidase, SEQ ID NO: 10); linker SEQ ID NO: 6; Penicillium amagasakiens glucose oxidase, SEQ ID (Penicillium amagasakiense, UniProt P81156); details: 20 mM NaCl, pH7.5; for Km: read-out: KM H2O2; for Ki: read-out: Ki H2O2, substrate inhibition
Target sequence in this assay (P81156 with tags, fused parts or gaps): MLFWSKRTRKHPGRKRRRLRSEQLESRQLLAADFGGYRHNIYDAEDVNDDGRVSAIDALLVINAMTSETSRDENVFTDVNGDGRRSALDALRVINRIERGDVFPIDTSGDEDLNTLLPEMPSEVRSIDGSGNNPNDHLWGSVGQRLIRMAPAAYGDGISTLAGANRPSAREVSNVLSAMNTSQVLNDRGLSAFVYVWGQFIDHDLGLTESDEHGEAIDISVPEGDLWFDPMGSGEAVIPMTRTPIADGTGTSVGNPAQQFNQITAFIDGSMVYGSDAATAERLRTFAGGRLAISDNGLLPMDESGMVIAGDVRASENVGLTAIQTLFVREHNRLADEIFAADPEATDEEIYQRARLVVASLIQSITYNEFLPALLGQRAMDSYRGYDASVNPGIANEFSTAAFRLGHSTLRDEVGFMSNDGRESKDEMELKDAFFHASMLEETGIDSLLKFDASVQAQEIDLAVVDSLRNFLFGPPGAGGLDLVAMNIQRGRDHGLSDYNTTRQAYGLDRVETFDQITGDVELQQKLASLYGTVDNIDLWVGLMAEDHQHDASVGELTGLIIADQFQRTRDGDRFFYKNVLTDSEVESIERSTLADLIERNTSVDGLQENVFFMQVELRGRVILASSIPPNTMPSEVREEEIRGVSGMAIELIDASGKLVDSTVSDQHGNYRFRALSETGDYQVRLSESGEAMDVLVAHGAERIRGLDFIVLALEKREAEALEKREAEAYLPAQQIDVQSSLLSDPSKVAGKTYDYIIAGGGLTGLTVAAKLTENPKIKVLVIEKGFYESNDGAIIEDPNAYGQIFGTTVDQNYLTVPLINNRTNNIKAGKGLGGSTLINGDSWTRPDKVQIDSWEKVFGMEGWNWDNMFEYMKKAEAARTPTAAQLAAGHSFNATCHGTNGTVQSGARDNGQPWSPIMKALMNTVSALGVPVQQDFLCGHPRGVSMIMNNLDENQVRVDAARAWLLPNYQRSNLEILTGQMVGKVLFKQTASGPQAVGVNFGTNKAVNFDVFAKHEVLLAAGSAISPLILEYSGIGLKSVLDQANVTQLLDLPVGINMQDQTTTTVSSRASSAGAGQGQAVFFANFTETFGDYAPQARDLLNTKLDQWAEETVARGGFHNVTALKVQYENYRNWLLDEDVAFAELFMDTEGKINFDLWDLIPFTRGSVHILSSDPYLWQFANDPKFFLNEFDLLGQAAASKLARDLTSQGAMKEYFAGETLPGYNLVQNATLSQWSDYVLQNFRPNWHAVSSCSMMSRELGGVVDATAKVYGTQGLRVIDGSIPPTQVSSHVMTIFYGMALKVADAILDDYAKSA
Procedure: The fluorescent probe aminophenyl fluorescein (APF) (λexcitation=485 nm and λemission=525 nm) was used to measure the HOCl production by the chimera, as a measure of its chlorination activity. […] For all experiments, 10 μM APF was used in each assay with 50 mM NaPi buffer pH7.5 QSP 20 μL (384-well plate). Each experiment was performed in triplicate. A 10-30 min. kinetic was performed for each range value and the increase rate of fluorescence intensity was compared to the standard fluorescein range. The measured fluorescence per second was thus proportional to the amount of fluorescein, which in turn was proportional to the amount of HOCl produced by the chimeras.

[8] = molecular target: T2, RbMPO-LEGGEAEA-GOx chimera (Rhodopirellula baltica myeloperoxidase, SEQ ID NO: 10; linker SEQ ID NO: 4; Penicillium amagasakiens glucose oxidase, SEQ ID NO: 12); details: monomer 1, NaSCN as a substrate, 50 mM glucose, pH6, 37° C.
Procedure: Initial rate measurements under steady state conditions were made with a BioLogic SFM400 stopped-flow by using a single-mixing mode and Xe/Hg lamp and a TC100/10 cell. One syringe was filled with the chimera and another one with glucose and NaSCN. The concentrations of the chimera and glucose were fixed (300 nM and 50 mM, respectively), and measurement was carried out at 37° C. and at 240 nm. The appearance of −OSCN (hypothiocyanate) was measured at 240 nm at 37° C. in a 50 mM pH6 sodium phosphate buffer. At least five shots of 120 s were performed for each value of the NaSCN substrate range with the following sample period: 20 μs, 20 ms, 20 ms with 2000 points per period. Slopes were calculated from shots average for each concentration and kss (s^−1) were determined using slopes with the following formula:
The molar extinction coefficient of −OSCN is ε−OSCN=[…]. Collecting data were analysed with Origin software and kss values were fitted with Michaëlis-Menten equation.

[9] = molecular target: T3, RbMPO-LEKREAEALEKREAEA-GOx chimera (Rhodopirellula baltica myeloperoxidase, SEQ ID NO: 10); linker SEQ ID NO: 6; Penicillium amagasakiens glucose oxidase, SEQ ID (Penicillium amagasakiense, UniProt P81156); assay: Coupled active sites, HOCl production from glucose, APF assay (Table 9), linker LEKREAEALEKREAEA; assay type: biochemical; details: dimer/monomer; fixed NaCl 20 mM, pH7.5
T3 construct: 6His (in the pET21a vector behind the XhoI site); made in house; host or cells: E. coli BL21Star (DE3)
Procedure: (§4) Each experiment was performed in triplicate.
(§5) The activity of the two active sites was then assessed in conjunction to each other (FIG. 1).
(§6) Briefly, the aim was to measure the production of HOCl from glucose and NaCl as respective substrates of the enzymes, using the APF probe. Two types of kinetics were performed: • i) kinetics at various concentrations of glucose and a fixed concentration of NaCl, and • ii) kinetics at various concentration of NaCl and a fixed concentration of glucose.

[10] = molecular target: T4, RbMPO-LGKRGAGA-GOx chimera (Rhodopirellula baltica myeloperoxidase, SEQ ID NO: 10; linker SEQ ID NO: 5; Penicillium amagasakiens glucose oxidase, SEQ ID NO: 12) (Penicillium amagasakiense, UniProt P81156); assay: Coupled active sites, HOCl production from glucose, APF assay (Table 9), linker LGKRGAGA; assay type: biochemical; details: trimer; fixed NaCl 20 mM, pH7.5
T4 construct: 6His (in the pET21a vector behind the XhoI site); made in house; host or cells: E. coli BL21Star (DE3)
Procedure: as §4, §5, §6

[11] = molecular target: T1, RbMPO-GOx chimera, no linker (Rhodopirellula baltica myeloperoxidase, SEQ ID NO: 10, fused to Penicillium amagasakiens glucose oxidase, SEQ ID NO: 12); assay: Coupled active sites, HOCl production from glucose, APF assay (Table 9), chimera without linker; assay type: biochemical; set-up: heme and FAD reconstituted; monomer; GOx mature part (P81156 19-605); details: monomer; fixed NaCl 20 mM, pH7.5
Procedure: as §4, §5, §6
Target sequence in this assay (P81156 19-605, change not shown): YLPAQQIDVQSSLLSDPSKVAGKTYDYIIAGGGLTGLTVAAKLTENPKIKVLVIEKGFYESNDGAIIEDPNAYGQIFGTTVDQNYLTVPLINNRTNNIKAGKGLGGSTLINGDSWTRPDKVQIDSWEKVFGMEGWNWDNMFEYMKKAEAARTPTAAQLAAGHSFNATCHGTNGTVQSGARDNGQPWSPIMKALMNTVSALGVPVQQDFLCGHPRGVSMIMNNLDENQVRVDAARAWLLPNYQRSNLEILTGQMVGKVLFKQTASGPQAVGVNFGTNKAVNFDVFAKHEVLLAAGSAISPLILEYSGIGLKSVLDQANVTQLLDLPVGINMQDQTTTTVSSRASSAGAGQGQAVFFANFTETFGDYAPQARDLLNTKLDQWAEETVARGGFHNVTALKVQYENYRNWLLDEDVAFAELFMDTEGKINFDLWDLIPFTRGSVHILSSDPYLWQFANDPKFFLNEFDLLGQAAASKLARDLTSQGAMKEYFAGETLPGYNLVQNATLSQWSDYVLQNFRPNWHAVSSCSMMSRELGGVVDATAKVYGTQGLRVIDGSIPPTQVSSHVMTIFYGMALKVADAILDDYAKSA

[12] = molecular target: T2, RbMPO-LEGGEAEA-GOx chimera (Rhodopirellula baltica myeloperoxidase, SEQ ID NO: 10; linker SEQ ID NO: 4; Penicillium amagasakiens glucose oxidase, SEQ ID NO: 12); assay: Coupled active sites, HOCl production from glucose, APF assay (Table 9), linker LEGGEAEA; assay type: biochemical; set-up: 6His (in the pET21a vector behind the XhoI site); made in house; host or cells: E. coli BL21Star (DE3)
Procedure: as §4, §5, §6

[13] = read-out: Ki H2O2, substrate inhibition
[14] = mixture of oligomers, 15 mM glucose and 500 mM NaCl

## OO [H2O2, hydrogen peroxide]
[1]; dimer/monomer
  kcat: 0.00418 s⁻¹
  kcat/KM: 363.5 ± 382.3 M⁻¹ s⁻¹
  Km: 11.5 µM
  Ki: 0.0329 mM
[1]; excluded
  kcat: 0.0001682 s⁻¹
  kcat/KM: 1 ± 0.6 M⁻¹ s⁻¹ and 0.998 ± 0.603 M⁻¹ s⁻¹
  Km: 168 ± 81 µM
[1]; monomer
  kcat: 0.0001798 s⁻¹
  kcat/KM: 38.3 ± 23.6 M⁻¹ s⁻¹
  Km: 4.7 µM
  Ki: 13.1 ± 4.9 mM
[1]; trimer
  Km: 2.86 µM
  Ki: 5.92 ± 3.22 mM
  kcat: 0.0005086 s⁻¹
  kcat/KM: 177.8 ± 133.1 M⁻¹ s⁻¹
[2]
  kcat: 0.0012 s⁻¹
  kcat/KM: 4.44 ± 3.15 M⁻¹ s⁻¹
[2]; read-out: KM H2O2
  Km: 270 ± 140 µM
[2]; [13]
  Ki: 1.91 ± 0.48 mM
[3]; monomer 1, 20 mM NaCl, pH7.5
  kcat: 0.0003086 s⁻¹
  kcat/KM: 34.2 ± 19.4 M⁻¹ s⁻¹
[3]; read-out: KM H2O2, monomer 1, 20 mM NaCl, pH7.5
  Km: 9.02 µM
[3]; read-out: Ki H2O2, monomer 1, 20 mM NaCl, pH7.5, substrate inhibition
  Ki: 34.9 ± 12.6 mM
[3]; result in words
  inhibition by H2O2: weak inhibition
[4]; read-out: KM H2O2
  Km: 45 ± 15 µM
[4]; [13]
  Ki: 2.12 ± 1.7 mM
[4]
  kcat: 0.000587 s⁻¹
  kcat/KM: 13.04 ± 6.51 M⁻¹ s⁻¹
[5]; dimer/monomer
  kcat: 0.000576 s⁻¹
  kcat/KM: 16.08 ± 17.15 M⁻¹ s⁻¹
  Km: 36 ± 25 µM
  Ki: 6.3 ± 3.33 mM
[5]; excluded
  kcat: 0.0001553 s⁻¹
  kcat/KM: 6.82 ± 4.27 M⁻¹ s⁻¹
  Km: 23 ± 11 µM
  Ki: 17.3 ± 10.6 mM
[5]; trimer
  Km: 704 ± 448 µM
  Ki: 35.9 ± 22.2 mM
  kcat: 0.0003 s⁻¹
  kcat/KM: 0.426 ± 0.365 M⁻¹ s⁻¹
[6]
  inhibition by H2O2: weak inhibition
[7]; dimer/monomer
  kcat: 0.00374 s⁻¹
  kcat/KM: 1508 ± 19.4 M⁻¹ s⁻¹ and 1508 ± 107 M⁻¹ s⁻¹
  Km: 2.48 µM
  Ki: 4.63 ± 1.05 mM
[7]; excluded
  kss/[H2O2]: 0.0051 ± 0.00035 M⁻¹ s⁻¹
[7]; trimer
  Km: 13 ± 1 µM
  Ki: 0.597 ± 0.211 mM
  kcat: 0.0047 s⁻¹
  kcat/KM: 361.5 ± 64.5 M⁻¹ s⁻¹

## N#CS [SCN, thiocyanate]
[8]
  kcat: 0.31 s⁻¹
  kcat/KM: 1409 M⁻¹ s⁻¹
[8]; read-out: KM SCN
  Km: 220 µM

## OC[C@H]1OC(O)[C@H](O)[C@@H](O)[C@@H]1O (stereo partly drawn) [glucose]
[9]
  kcat/KM glucose: 2.47 ± 1.58 M⁻¹ s⁻¹
[10]
  kcat/KM glucose: 1.1 ± 0.8 M⁻¹ s⁻¹
[11]
  Km: 3020 ± 770 µM
  kcat: 3.09e-05 s⁻¹
[12]; [14]
  kss: around 10^−3 s^−1
  kss/[Glucose]: 10^−3 M^−1·s^−1
[12]; monomer 2, fixed NaCl 20 mM, pH7.5
  kcat/KM glucose: 2.73 ± 1.5 M⁻¹ s⁻¹
